In PMC6413085, “A Validated HPLC-MS/MS Assay for 14-O-[(4,6-Diaminopyrimidine-2-yl)thioacetyl] Mutilin in Biological Samples and Its Pharmacokinetic, Distribution and Excretion via Urine and Feces in Rats” (Molecules, 2019):
Where two headings read alike, the source gives them in different places.

Columns and labels:
[1] = Pharmacokinetic study of DPTM in rats after i.v., i.m. and p.o. administration (HPLC-MS/MS, non-compartmental); assay type: in vivo; conditions: Sprague-Dawley, plasma, rat; for Tmax: median (min–max); for bioavailability: read-out: F, absolute bioavailability; for MRT last: read-out: MRT0–t; for CL renal: read-out: CLR(0–t) renal clearance; for Vd: read-out: Vss
Method: After administration of three i.v., i.m. and p.o. dose (10, 25 and 75 mg/kg) of DPTM to rats, the pharmacokinetic profiles of DPTM were quantified by the validated HPLC-MS/MS methods. […] Blood samples (approximately 200 µL) were collected into heparinized tubes through an indwelling catheter inserted in the jugular vein [30] at 0.083, 0.166, 0.5, 1, 2, 4, 6, 8, 12 and 24 h after i.v. dosing and at 0.083, 0.166, 0.5, 1, 2, 4, 6, 8, 12, 24 and 48 h after i.m. or p.o. dosing. The samples were immediately centrifuged (4000 rpm for 10 min) and the supernatants were taken out and stored in a freezer at −70 °C until analysis. The drug was extracted with acetonitrile using the condition previously described. Then, an aliquot of the reconstituted extracts was transferred and filtrated through a 0.22-μm cellulose membrane filter and 10 μL was injected into the HPLC-MS/MS system. A non-compartmental model was used to determine the pharmacokinetic parameters of DPTM. Pharmacokinetic parameters, including maximum plasma concentration (Cmax), time (Tmax), area under the plasma concentration versus time curve from zero to last sampling time (AUC0−t) and elimination half-life (t1/2) were calculated using WinNonlin software (version 2.1, Pharsight, Mountain View, CA, USA). The absolute bioavailability was calculated as follows:F = (AUCextravascular/(AUCi.v.) × (dosei.v./doseextravascular) × 100%. The data are presented as mean ± standard deviation (SD) except for Tmax values using median (minimum value–maximum value).

[2] = system: Gram-positive bacteria, including methicillin-resistant Staphylococcus aureus (MRSA), Staphylococcus aureus, Bacillus subtilis; parameters: method as in PMID 27940400; conditions: S. aureus, B. subtilis; cited from earlier work

Tmax ([1]; im, 10 mg/kg): 0.5 h
Tmax ([1]; im, 25 mg/kg): 0.5 h
Tmax ([1]; im, 75 mg/kg): 0.5 h
bioavailability ([1]; im, i.m., 10 mg/kg): 68.2%
MRT last ([1]; im, i.m., 10 mg/kg): 4.4 ± 0.3 h
bioavailability ([1]; im, i.m., 25 mg/kg): 48.5%
MRT last ([1]; im, i.m., 25 mg/kg): 4.8 ± 0.3 h
CL renal ([1]; im, i.m., 75 mg/kg): 46.2 ± 3.8 mL/min
bioavailability ([1]; im, i.m., 75 mg/kg): 15.8%
MRT last ([1]; im, i.m., 75 mg/kg): 4.2 ± 0.8 h
clearance ([1]; iv, 10 mg/kg): 5 mL/min/kg
Tmax ([1]; iv, 10 mg/kg): 0.08 h
clearance ([1]; iv, 25 mg/kg): 1.67 mL/min/kg
Tmax ([1]; iv, 25 mg/kg): 0.08 h
clearance ([1]; iv, 75 mg/kg): 0.5 mL/min/kg
Tmax ([1]; iv, 75 mg/kg): 0.083 h
MRT last ([1]; iv, i.v., 10 mg/kg): 1 ± 0.2 h
Vd ([1]; iv, i.v., 10 mg/kg): 0.3 ± 0.1 L/kg
MRT last ([1]; iv, i.v., 25 mg/kg): 1.3 ± 0.7 h
Vd ([1]; iv, i.v., 25 mg/kg): 0.2 L/kg
CL renal ([1]; iv, i.v., 75 mg/kg): 97.6 ± 9.6 mL/min
MRT last ([1]; iv, i.v., 75 mg/kg): 1.5 ± 0.4 h
Vd ([1]; iv, i.v., 75 mg/kg): 0.03 L/kg
Tmax ([1]; po, 10 mg/kg): 2 h
Tmax ([1]; po, 25 mg/kg): 2 h
Tmax ([1]; po, 75 mg/kg): 2 h
bioavailability ([1]; po, p.o., 10 mg/kg): 22.9%
MRT last ([1]; po, p.o., 10 mg/kg): 12.8 ± 0.1 h
bioavailability ([1]; po, p.o., 25 mg/kg): 24.3%
MRT last ([1]; po, p.o., 25 mg/kg): 9.8 ± 0.2 h
CL renal ([1]; po, p.o., 75 mg/kg): 12.2 ± 1.3 mL/min
bioavailability ([1]; po, p.o., 75 mg/kg): 4.17%
MRT last ([1]; po, p.o., 75 mg/kg): 6.9 ± 0.4 h
half-life ([1]; im, 10 mg/kg, i.m., 10 mg/kg, read-out: t1/2 (converted)): 3.5 h
AUC(0-t) ([1]; im, 10 mg/kg, rat serum, i.m., 10 mg/kg, read-out: AUC0→t): 1500 ± 100 ng·h/mL
Cmax ([1]; im, 10 mg/kg, rat serum, i.m., 10 mg/kg, read-out: Cmax): 500 ± 100 ng/mL
half-life ([1]; im, 25 mg/kg, i.m., 25 mg/kg, read-out: t1/2 (converted)): 3.2 ± 0.2 h
AUC(0-t) ([1]; im, 25 mg/kg, rat serum, i.m., 25 mg/kg, read-out: AUC0→t): 2600 ± 200 ng·h/mL
Cmax ([1]; im, 25 mg/kg, rat serum, i.m., 25 mg/kg, read-out: Cmax): 700 ± 100 ng/mL
half-life ([1]; im, 75 mg/kg, i.m., 75 mg/kg, read-out: t1/2 (converted)): 3.3 ± 0.3 h
AUC(0-t) ([1]; im, 75 mg/kg, i.m., range over 10, 25 and 75 mg/kg doses, read-out: area under the curve from 0 to 48 h (AUC0→t)): 1520 to 5700 ng·h/mL
half-life ([1]; im, 75 mg/kg, i.m., range over 10, 25 and 75 mg/kg doses, read-out: half-life (t1/2)): 3.23 to 3.49 h
AUC(0-t) ([1]; im, 75 mg/kg, rat serum, i.m., 75 mg/kg, read-out: AUC0→t): 5700 ± 200 ng·h/mL
Cmax ([1]; im, 75 mg/kg, rat serum, i.m., 75 mg/kg, read-out: Cmax): 1800 ± 100 ng/mL
Cmax ([1]; im, range over 10, 25 and doses, read-out: maximum concentration (Cmax) of drug in serum): 470 to 1830 ng/mL
half-life ([1]; iv, 10 mg/kg, i.v., 10 mg/kg, read-out: t1/2 (converted)): 1.7 ± 0.1 h
AUC(0-t) ([1]; iv, 10 mg/kg, rat serum, i.v., 10 mg/kg, read-out: AUC0→t): 2200 ± 200 ng·h/mL
Cmax ([1]; iv, 10 mg/kg, rat serum, i.v., 10 mg/kg, read-out: Cmax): 7500 ± 400 ng/mL
half-life ([1]; iv, 25 mg/kg, i.v., 25 mg/kg, read-out: t1/2 (converted)): 1.7 ± 0.4 h
AUC(0-t) ([1]; iv, 25 mg/kg, rat serum, i.v., 25 mg/kg, read-out: AUC0→t): 5400 ± 200 ng·h/mL
Cmax ([1]; iv, 25 mg/kg, rat serum, i.v., 25 mg/kg, read-out: Cmax): 16000 ± 500 ng/mL
half-life ([1]; iv, 75 mg/kg, i.v., 75 mg/kg, read-out: t1/2 (converted)): 1.9 ± 0.5 h
AUC(0-t) ([1]; iv, 75 mg/kg, i.v., range over 10, 25 and 75 mg/kg doses, read-out: area under the curve from 0 to 48 h (AUC0→t)): 2230 to 36000 ng·h/mL
half-life ([1]; iv, 75 mg/kg, i.v., range over 10, 25 and 75 mg/kg doses, read-out: half-life (t1/2)): 1.7 to 1.86 h
AUC(0-t) ([1]; iv, 75 mg/kg, rat serum, i.v., 75 mg/kg, read-out: AUC0→t): 36000 ± 300 ng·h/mL
Cmax ([1]; iv, 75 mg/kg, rat serum, i.v., 75 mg/kg, read-out: Cmax): 65100 ± 800 ng/mL
Cmax ([1]; iv, range over 10, 25 and doses, read-out: maximum concentration (Cmax) of drug in serum): 7540 to 65100 ng/mL
half-life ([1]; po, 10 mg/kg, p.o., 10 mg/kg, read-out: t1/2 (converted)): 4.6 ± 0.1 h
AUC(0-t) ([1]; po, 10 mg/kg, rat serum, p.o., 10 mg/kg, read-out: AUC0→t): 500 ± 100 ng·h/mL
Cmax ([1]; po, 10 mg/kg, rat serum, p.o., 10 mg/kg, read-out: Cmax): 100 ng/mL
half-life ([1]; po, 25 mg/kg, p.o., 25 mg/kg, read-out: t1/2 (converted)): 4.4 ± 0.2 h
AUC(0-t) ([1]; po, 25 mg/kg, rat serum, p.o., 25 mg/kg, read-out: AUC0→t): 1300 ± 100 ng·h/mL
Cmax ([1]; po, 25 mg/kg, rat serum, p.o., 25 mg/kg, read-out: Cmax): 200 ng/mL
half-life ([1]; po, 75 mg/kg, p.o., 75 mg/kg, read-out: t1/2 (converted)): 4.7 ± 0.4 h
AUC(0-t) ([1]; po, 75 mg/kg, p.o., range over 10, 25 and 75 mg/kg doses, read-out: area under the curve from 0 to 48 h (AUC0→t)): 510 to 1500 ng·h/mL
half-life ([1]; po, 75 mg/kg, p.o., range over 10, 25 and 75 mg/kg doses, read-out: half-life (t1/2)): 4.38 to 4.7 h
AUC(0-t) ([1]; po, 75 mg/kg, rat serum, p.o., 75 mg/kg, read-out: AUC0→t): 1500 ng·h/mL
Cmax ([1]; po, 75 mg/kg, rat serum, p.o., 75 mg/kg, read-out: Cmax): 300 ± 100 ng/mL
Cmax ([1]; po, range over 10, 25 and doses, read-out: maximum concentration (Cmax) of drug in serum): 50 to 310 ng/mL
Compound: C=CC1(C)CC(OC(=O)CSc2nc(N)cc(N)n2)C2(C)C(C)CCC3(CCC(=O)C32)C(C)C1O (stereo not shown) [DPTM, 14-O-[(4,6-Diaminopyrimidine-2-yl)thioacetyl] mutilin]
in vitro activities against Gram-positive bacteria [2]: excellent in vitro activities
